Laboratory results published in the METLIN SMRT retention time set (Domingo-Almenara et al. 2019).

Assay: gradient 5% acetonitrile 3 min, to 50% in 2 min, to 85% in 15 min, held 3 min, 100 µL/min
Details: column: Zorbax Extend-C18 2.1 x 50 mm; eluents: water / acetonitrile, 0.1% formic acid
In short: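 Each retention time is based on an adduct peak selected computationally and verified by manual inspection. Measurements used HPLC–quadrupole time-of-flight mass spectrometry in positive and negative ionization mode on mixtures of ~100 pure standards. Chromatography ran on a Zorbax Extend-C18 column (2.1 × 50 mm, 1.8 μm) at 100 μL/min with water and acetonitrile, each containing 0.1% formic acid, and dead and dwell volumes of 40 μL and 900 μL.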

SMILES	RP-LC retention time [s]
CC(C(=O)OC1CC2CCC(C1)N2C)c1ccc(Br)cc1 (centres undefined)	785
Cc1[nH]c2ccc(-c3nnc(SCC(=O)NCCc4nc5ccccc5[nH]4)o3)cc2c1C	667
O=S(=O)(c1cccc(Cl)c1)N1CCc2nc(-c3ccc(F)cc3)ncc2C1	1180
Cc1ccc(CNC(=O)C2(C)CN(S(=O)(=O)c3ccccc3)CC(=O)N2c2cccc(F)c2)cc1 (centres undefined)	962
O=S(=O)(NCc1ccc(F)cc1)c1ccccc1-c1nc(-c2ccccc2)no1	1160
C[C@@H]1O[C@@H](OC2O[C@@H](COc3cc(O)c4c(=O)cc(-c5ccc(O)cc5)oc4c3)[C@@H](O)[C@@H](O)[C@@H]2O)[C@H](O)[C@H](O)[C@H]1O (some centres undefined)	671
COC(=O)c1nnn(-c2ccc(Cl)cc2)c1C(=O)OC	908
COc1ccc(N2C=C(C#N)S(=O)(=O)c3ccc(Cl)cc32)c(OC)c1	995
N#CCCSc1ccccc1NC(=O)c1ccc(S(=O)(=O)N2CCOCC2)cc1	760
O=C(NCc1ccc(F)cc1)c1nc(Cn2c(=O)oc3ccc(Cl)cc32)no1	942
O=C(Nc1ccc(-n2cnc(C(=O)N3CCSCC3)c2)nc1)C1CC1	657
Cc1nn(-c2ccc(-c3ccccc3)nn2)c(C)c1S(=O)(=O)Nc1ccc2c(c1)OCCO2	978
Cc1ccn2c(NC(=O)/C=C/c3ccccc3)c(-c3ccccc3)nc2c1	703
Cn1nccc1-c1cccc(-c2noc(-c3ccc(Br)o3)n2)c1	1090
CCN1CCCC1CN(CC(=O)N1CCNCC1)S(=O)(=O)c1c(C)cc(C)cc1C (centres undefined)	588
O=C(Cn1ccn2nc(-c3ccccc3)c(CO)c2c1=O)Nc1cc(Cl)cc(Cl)c1	867
CNc1cc(-c2ccccc2)[nH]n1	553
Cc1ccccc1Cn1cc(-c2ccncc2)cc1C(=O)NCc1cccnc1	581
Cc1sc(-c2noc(C3CC3)n2)cc1S(=O)(=O)N1CCC(C(=O)NC2CCCCCC2)CC1	1080
COc1ccc(NCc2ccc3c(c2)n(C)c(=O)n3C)cc1Cl	1150
CCOc1cc(C2C(C(=O)OC(C)C)=C(C)N=C3SCCC(=O)N32)ccc1OC(C)=O (centres undefined)	908

SMILES	RP-LC retention time [s]
CC(=O)c1ccc(NC(=O)N(C)C)cc1	588
O=C(CCCN1C(=O)CSc2ncccc21)N1CCN(c2ccccn2)CC1	559
O=C(C1CCCN(Cc2nc(-c3ccncc3)no2)C1)N1CCN(c2ncccn2)CC1 (centres undefined)	559
Cc1ccc(NS(=O)(=O)c2cc3n(c2)CCN(C)C3=O)c(F)c1	1070
CCc1nnc2ccc(-c3noc(-c4ccc(NC(C)=O)cc4)n3)cn12	705
COc1ccc(CCc2nc3nccc(-c4ccc(OC)c(OC)c4)n3n2)cc1OC	781
O=C(C1CCCCC1)N1CC(c2nc(-c3ccccc3)no2)C2(CCOCC2)C1 (centres undefined)	963
CCOc1ccc(-c2csc(Cc3nc(-c4ccccc4)no3)n2)cc1	1230
COc1ccccc1-c1nn2c(-c3ccc4ccccc4n3)nnc2s1	1040
O=C(Nc1ccccc1F)N1CCC(CCNC(=O)C2(c3ccccc3)CC2)CC1	889
CC1(c2ccccc2)NN=C2Oc3ccccc3N21 (centres undefined)	812
CCN(CC)CCn1c(NCc2ccc(C)cc2)nc2ccccc21	584
Fc1ccc(C2Cn3nnc(-c4nc(-c5cccnc5)no4)c3CO2)cc1 (centres undefined)	896
Cc1ccc(C)c(CN2CCC(N3CCN(Cc4nc(C)no4)C3=O)C2)c1 (centres undefined)	630
CCc1cc(=O)n(CC(=O)N2CCc3ccccc32)c(-c2ccccc2)n1	1170
CCn1cc(CCN2CCN(S(=O)(=O)c3ccc(F)cc3)CC2)c2cccnc21	638
O=C(NCc1cscn1)C1CCN(S(=O)(=O)c2cccc3nsnc23)CC1	659
NS(=O)(=O)c1ccc(CCNc2nnnc3c2cnn3-c2ccccc2)cc1	814
COc1ccc(S(=O)(=O)N2CCC(n3cnnc3-c3ccccc3)CC2)cc1OC	718
CCn1cc(C)c(C(=O)O)c1CC(=O)Nc1cc(Cl)c(OC)cc1OC	901
Cc1cc(C)n(Cc2c(C(=O)NCC34CCC=C3N(C)C(=O)CC4)noc2C)n1 (centres undefined)	749

SMILES	RP-LC retention time [s]
CC1CCN(CCNC(=O)c2nnc(-c3ccc(S(=O)(=O)N(C)C)cc3)o2)CC1	606
CC(=O)c1ccc(NC(=O)Cc2csc3nc(-c4ccc(C)c(C)c4)cn23)cc1	795
Cc1ccc(-c2noc(CN3C(=O)COc4ccc(C(C)(C)C)cc43)n2)cc1	1310
Cc1cc(C)c(NC(=O)Cn2c(=O)n(-c3ccc(F)cc3)c(=O)c3c2cc(C)n3C)c(C)c1	921
O=C(NC1CCCCCC1)C1CCN(Cc2cc3ccccc3n2Cc2ccccc2Cl)CC1	899
N#CC1=CN(c2ccc(C(F)(F)F)cc2)c2ccccc2S1(=O)=O	963
O=C(NCc1ccc(N2CCCCC2)cc1)c1cccc2c1CCN2C(=O)C1CC1	634
O=C(NC(NC(=O)c1ccccc1)c1ccccc1)c1ccccc1	765
CN(CC1CCOCC1)C(=O)c1ccsc1	643
O=C(NC1CCN(Cc2ccccc2)CC1)c1cn2nc(Cl)ccc2n1	621
COc1ccc(C2C(=O)N(C3CCCCC3)CC(=O)N2Cc2cccs2)cc1 (centres undefined)	952
O=C(c1sc2cc(F)ccc2c1Cl)N1CCN(c2ccccn2)CC1	693
CCOCCCNCc1ccc(-c2ccccc2)o1	649
COc1ccc(S(=O)(=O)N2CCc3nc(-c4ccccc4)ncc3C2)cc1Cl	1090
COc1ccc(-c2nnc(CC(=O)NCc3ccccn3)o2)cc1	588
O=C1CC(c2noc(-c3cc(F)cc(F)c3)n2)CN1c1ccc(F)c(Cl)c1 (centres undefined)	1110
Cc1cc(Cl)ccc1OCc1nc(-c2ccc(NS(C)(=O)=O)cc2)no1	1060
OC1(c2ccccn2)CCOC2(CCN(Cc3cccc(F)c3F)CC2)C1 (centres undefined)	571
O=C(Nc1nc(-c2cccnc2)cs1)c1csc(-n2cccc2)n1	667
O=c1n(Cc2ccccc2Cl)nc2ccc(S(=O)(=O)N3CCCCC3)cn12	979

Further lines, results first:

RP-LC retention time [s]	SMILES
1100	COC(=O)C1=CN(C)c2cc(N3CCC(Cc4ccccc4)CC3)c(F)cc2S1(=O)=O
692	CC(C)c1nncn1C1CCN(S(=O)(=O)c2ccccc2F)CC1
724	COc1ccc(N2CC(C(=O)NCc3ccccc3OC)CC2=O)cc1 (centres undefined)
630	Cc1ccc(NC(=O)Cn2cnc(C)c(C)c2=O)cc1F
774	CC(C)CC(=O)Nc1ccc(-n2cnc(C(=O)N3CCC(C)CC3)c2)nc1
824	CCOC(=O)c1cccc(NC(=O)NC2CCN(c3ccc(F)cc3)C2=O)c1 (centres undefined)
675	CC(C)n1cnc2cc(CNC(=O)c3cccc(C(F)(F)F)c3)ccc21
970	CCCc1noc(-c2ccc(-n3ncc(C(=O)NC(C)C)c3C)nc2)n1
708	O=C(/C=C/c1ccccc1)Nc1cccc(-c2nnc3n2CCCC3)c1
674	CCc1cc(=O)n(CC(=O)N(C)c2ccccc2)c(N2CCOCC2)n1
1190	CCn1cccc1-c1nc(C)c(C(=O)N2CCN(c3cccc(C)c3)C(C)C2)s1 (centres undefined)
674	CCc1ccccc1NC(=O)Cn1nc2n(c1=O)CCCC2
803	Cc1cc(Cl)ccc1NC(=O)C1CCCN(c2nnc(C)c3c(C)n(-c4ccccc4)nc23)C1 (centres undefined)
1140	COc1cccc(-c2ccc(=O)n(Cc3nc(-c4ccc(OC(C)C)cc4)no3)n2)c1
1080	COc1ccc2c(c1)CCc1sc(NC(=O)c3cc(OC)c(OC)c(OC)c3)nc1-2
659	CCN1CCN(C(=O)C2CCN(c3ccc(Sc4ccc(C(C)C)cc4)nn3)CC2)CC1
807	CC(=O)Nc1cccc(N2CC(C(=O)Nc3ccc(Cl)c(C(F)(F)F)c3)CC2=O)c1 (centres undefined)
958	N#Cc1cccc(NC(=O)Cn2cccc(-c3nc(-c4ccc(Br)cc4)no3)c2=O)c1
1010	COc1ccc2c(c1)C1CC(C)(NC(=O)C1S(=O)(=O)c1ccc(C(C)C)cc1)O2 (centres undefined)
855	COc1cccc(NC(=O)N2CCCC2c2cc(C(C)C)no2)c1 (centres undefined)
686	CCOc1ccccc1NC(=O)N1CCC(n2cnc3cccnc32)CC1
590	CSc1cccc(NC(=O)N2CCc3nc[nH]c3C2)c1
715	COc1ccc(CNC(=O)CN2CCN(Cc3ccccc3C)C(=O)C2=O)cc1
692	Cc1cc(NC(=O)N2CCC(n3cnnc3C3CC3)C2)ccc1Br (centres undefined)
847	Cc1nc(-c2csc(S(=O)(=O)N3CCCC(C(=O)NCc4cccs4)C3)c2)no1 (centres undefined)
854	CCOC(=O)c1nc(Nc2cccc(OC)c2)c2ccccc2n1
862	O=C(NCc1ccccc1)N1CCCC1c1nc(-c2ccc(F)cc2F)no1 (centres undefined)
